Experimental data published in ChEMBL document CHEMBL1128323, “Antifungal agents. 9. 3-Aryl-4-[alpha-(1H-imidazol-1-yl)arylmethyl]pyrroles: a new class of potent anti-Candida agents” (1995).
Converted amounts (≈) assume the structure as drawn.

Columns and labels:
Format in all cases: functional
[1] = tested on: Candida; test: Resistance against all Candida. species (40 clinical isolates) at 256 micro g/mL (pH=5.8). Activity is expressed as R%.
[2] = tested on: Candida; test: Inhibitory activity against Candida. species. (40 clinical isolates), determined at pH-7.2
[3] = tested on: Candida; test: Inhibitory activity against Candida. species (40 clinical isolates), determined at pH-5.8
[4] = tested on: Candida; test: Inhibitory activity against Candida. species. (40 clinical isolates), determined at pH-5.8
[5] = tested on: Candida albicans; test: 50% inhibitory activity against Candida albicans (40 clinical isolates) determined at pH-7.2; conditions: Candida albicans; read-out: MIC50
[6] = tested on: Candida albicans; test: Percent resistance against Candida albicans (40 clinical isolates) at 256 micro g/mL (pH=5.8), activity is expressed as R%.
[7] = tested on: Candida; test: 50% inhibitory activity against the Candida. species (40 clinical isolates) was determined at pH-7.2
[8] = tested on: Candida albicans; test: Inhibitory activity against the Candida albicans (40 clinical isolates), determined at pH-7.2
[9] = tested on: Candida; test: 90% inhibitory activity against Candida. species (40 clinical isolates) determined at pH-7.2
[10] = tested on: Candida albicans; test: 50% inhibitory activity against Candida albicans (40 clinical isolates) determined at pH-5.8
[11] = tested on: Candida; test: Percent resistance against all Candida. species (40 clinical isolates) at 256 micro g/mL (pH=7.2), activity is expressed as R%.
[12] = tested on: Candida albicans; test: Inhibitory activity against the Candida albicans (40 clinical isolates), determined at pH-5.8
[13] = tested on: Candida albicans; test: Inhibitory activity against Candida albicans (40 clinical isolates), determined at pH-7.2
[14] = tested on: Candida albicans; test: Inhibitory activity against Candida albicans (40 clinical isolates), determined at pH-5.8
[15] = tested on: Candida albicans; test: Resistance against Candida. albicans (40 clinical isolates) at 256 ug/mL (pH=7.2), activity is expressed as R%.

SMILES	R [1]	MIC [2]	MIC50 [3]	MIC90 [3]	MIC [4]	MIC50 [5]	R [6]	MIC50 [7]	MIC90 [8]	MIC90 [9]	MIC50 [10]	R [11]	MIC90 [12]	MIC [13]	MIC [14]	R [15]
Fc1ccc(C(c2c[nH]cc2-c2ccc(Cl)cc2)n2ccnc2)cc1 (stereo not given)	0%	31.8 µg/mL (≈ 90.4 µM)	32 µg/mL (≈ 91 µM)	32 µg/mL (≈ 91 µM)	26.6 µg/mL (≈ 75.6 µM)	16 µg/mL (≈ 45.5 µM)	0%	32 µg/mL (≈ 91 µM)	32 µg/mL (≈ 91 µM)	64 µg/mL (≈ 182 µM)	32 µg/mL (≈ 91 µM)	0%	64 µg/mL (≈ 182 µM)	19.2 µg/mL (≈ 54.6 µM)	15.4 µg/mL (≈ 43.8 µM)	0%
Cc1ccc(C(c2c[nH]cc2-c2ccc(Cl)cc2)n2ccnc2)cc1 (stereo not given)	0%	23.1 µg/mL (≈ 66.4 µM)	16 µg/mL (≈ 46 µM)	32 µg/mL (≈ 92 µM)	20.4 µg/mL (≈ 58.6 µM)	16 µg/mL (≈ 46 µM)	0%	16 µg/mL (≈ 46 µM)	32 µg/mL (≈ 92 µM)	32 µg/mL (≈ 92 µM)	16 µg/mL (≈ 46 µM)	0%	32 µg/mL (≈ 92 µM)	18.9 µg/mL (≈ 54.3 µM)	12.3 µg/mL (≈ 35.4 µM)	0%
Clc1ccc(-c2c[nH]cc2C(c2ccccc2)n2ccnc2)c(Cl)c1 (stereo not given)	0%	16.6 µg/mL (≈ 45.1 µM)	32 µg/mL (≈ 86.9 µM)	32 µg/mL (≈ 86.9 µM)	23.5 µg/mL (≈ 63.8 µM)	2 µg/mL (≈ 5.43 µM)	0%	16 µg/mL (≈ 43.4 µM)	16 µg/mL (≈ 43.4 µM)	32 µg/mL (≈ 86.9 µM)	4 µg/mL (≈ 10.9 µM)	0%	16 µg/mL (≈ 43.4 µM)	5.4 µg/mL (≈ 14.7 µM)	8.4 µg/mL (≈ 22.8 µM)	0%
Nc1ccc(C(c2c[nH]cc2-c2ccccc2Cl)n2ccnc2)cc1 (stereo not given)	50%	> 222 µg/mL	256 µg/mL (≈ 734 µM)	256 µg/mL (≈ 734 µM)	201 µg/mL (≈ 576 µM)	64 µg/mL (≈ 183 µM)	0%	256 µg/mL (≈ 734 µM)	256 µg/mL (≈ 734 µM)	256 µg/mL (≈ 734 µM)	64 µg/mL (≈ 183 µM)	50%	256 µg/mL (≈ 734 µM)	131 µg/mL (≈ 376 µM)	100 µg/mL (≈ 288 µM)	0%
O=[N+]([O-])c1ccc(C(c2c[nH]cc2-c2ccccc2Cl)n2ccnc2)cc1 (stereo not given)	0%	> 200 µg/mL	64 µg/mL (≈ 169 µM)	64 µg/mL (≈ 169 µM)	48.4 µg/mL (≈ 128 µM)	32 µg/mL (≈ 84.5 µM)	0%	64 µg/mL (≈ 169 µM)	256 µg/mL (≈ 676 µM)	> 256 µg/mL	32 µg/mL (≈ 84.5 µM)	30%	64 µg/mL (≈ 169 µM)	> 91.6 µg/mL	> 50.7 µg/mL	15%
Clc1ccc(-c2c[nH]cc2C(c2ccc(-c3ccccc3)cc2)n2ccnc2)cc1 (stereo not given)	0%	> 352 µg/mL	32 µg/mL (≈ 78.1 µM)	128 µg/mL (≈ 312 µM)	28.4 µg/mL (≈ 69.3 µM)	64 µg/mL (≈ 156 µM)	0%	> 256 µg/mL	256 µg/mL (≈ 625 µM)	> 256 µg/mL	8 µg/mL (≈ 19.5 µM)	60%	256 µg/mL (≈ 625 µM)	> 150 µg/mL	> 26.5 µg/mL	40%
Fc1ccc(C(c2c[nH]cc2-c2ccc(Cl)cc2Cl)n2ccnc2)cc1 (stereo not given)	0%	20.9 µg/mL (≈ 54.1 µM)	16 µg/mL (≈ 41.4 µM)	32 µg/mL (≈ 82.8 µM)	21.5 µg/mL (≈ 55.7 µM)	8 µg/mL (≈ 20.7 µM)	0%	16 µg/mL (≈ 41.4 µM)	32 µg/mL (≈ 82.8 µM)	32 µg/mL (≈ 82.8 µM)	2 µg/mL (≈ 5.18 µM)	0%	32 µg/mL (≈ 82.8 µM)	10.4 µg/mL (≈ 26.9 µM)	7.8 µg/mL (≈ 20.2 µM)	0%
Clc1ccc(-c2c[nH]cc2C(c2ccc(Cl)c(Cl)c2)n2ccnc2)cc1 (stereo not given)	0%	91.3 µg/mL (≈ 227 µM)	32 µg/mL (≈ 79.5 µM)	64 µg/mL (≈ 159 µM)	32.2 µg/mL (≈ 80 µM)	2 µg/mL (≈ 4.97 µM)	0%	64 µg/mL (≈ 159 µM)	64 µg/mL (≈ 159 µM)	64 µg/mL (≈ 159 µM)	4 µg/mL (≈ 9.93 µM)	10%	64 µg/mL (≈ 159 µM)	19.3 µg/mL (≈ 48 µM)	14.4 µg/mL (≈ 35.8 µM)	0%
Clc1ccc(C(c2c[nH]cc2-c2ccc(Cl)c(Cl)c2)n2ccnc2)cc1 (stereo not given)	0%	39.2 µg/mL (≈ 97.3 µM)	32 µg/mL (≈ 79.5 µM)	64 µg/mL (≈ 159 µM)	30.2 µg/mL (≈ 75 µM)	4 µg/mL (≈ 9.93 µM)	0%	32 µg/mL (≈ 79.5 µM)	16 µg/mL (≈ 39.7 µM)	64 µg/mL (≈ 159 µM)	4 µg/mL (≈ 9.93 µM)	0%	16 µg/mL (≈ 39.7 µM)	9.6 µg/mL (≈ 23.8 µM)	8.9 µg/mL (≈ 22.1 µM)	0%
Clc1ccc(-c2c[nH]cc2C(c2ccc(Cl)cc2)n2ccnc2)cc1 (stereo not given)	0%	21.3 µg/mL (≈ 57.8 µM)	16 µg/mL (≈ 43.4 µM)	32 µg/mL (≈ 86.9 µM)	20.2 µg/mL (≈ 54.9 µM)	16 µg/mL (≈ 43.4 µM)	0%	16 µg/mL (≈ 43.4 µM)	32 µg/mL (≈ 86.9 µM)	32 µg/mL (≈ 86.9 µM)	8 µg/mL (≈ 21.7 µM)	0%	32 µg/mL (≈ 86.9 µM)	16.3 µg/mL (≈ 44.3 µM)	12.3 µg/mL (≈ 33.4 µM)	0%
